Test results from PMC6539903 (Molecules, 2019).

Experiments:
[1] = test system: SW620 cells; test: MTT antiproliferation assay, SW620; assay type: cell-based; details: Homo sapiens, SW-620, 48 h, n = 3, read-out: IC50 ± SD SW620
Experimental: (§1) MCF-7 (human breast cell line), HeLa (human cervical cell line), A549 (human lung cell line), HepG2 (human liver cell line), SW620 (human colorectal cell line) and a non-cancer cell line, NCM460 (Human colonic epithelial cells) were preserved at the State Key Laboratory of Pharmaceutical Biotechnology, Nanjing University (Nanjing, China).
(§2) The antiproliferative activity of the synthetic compounds against the SW620, MCF-7, HeLa, A549, HepG2, and NUM460 cell lines was evaluated by a colorimetric assay based on a modified standard (MTT). […] Thereafter, MTT (5 mg/mL in PBS) was added to each well and incubated for 4 h. 150 μL of DMSO was added to each well and shaken with a shaker. The absorbance (OD 570 nm) was read at 630 nm on an ELISA reader (ELx800, BioTek, montpelier, VT, USA). IC50 values for the compounds were calculated by comparison to DMSO treated control wells. Three replicate wells were used for each drug concentration. Each assay was performed three times.

[2] = test system: A549; test: MTT antiproliferation assay, A549; assay type: cell-based; details: Homo sapiens, 48 h, n = 3, read-out: IC50 ± SD A549
Experimental: as §1, §2

[3] = test system: HepG2; test: MTT antiproliferation assay, HepG2; assay type: cell-based; details: Homo sapiens, 48 h, n = 3, read-out: IC50 ± SD HepG2
Experimental: as §1, §2

[4] = test system: MCF-7; test: MTT antiproliferation assay, MCF-7; assay type: cell-based; details: Homo sapiens, MCF7, 48 h, n = 3, read-out: IC50 ± SD MCF-7
Experimental: as §1, §2

[5] = MTT cytotoxicity assay, non-cancer colon cells; assay type: cell-based; details: human, NCM460 colonic epithelial cells (non-cancer cell line), n = 3, non-cancer cell line, read-out: CC50 ± SD NUM460
Experimental: Besides, the MTT assay was performed on a non-cancer line NCM460 to assess the cytotoxicity of the test compound to normal colon cells.
as §1, §2

[6] = biological target: T1, COX-2 (Homo sapiens, UniProt P35354); test: COX-2 inhibition assay (COX-2 ELISA kit); assay type: biochemical; details: for Selectivity Index (SI) (COX-1 IC50/COX-2 IC50): in vitro COX-2 selectivity index; for IC50: mean of four determinations, read-out: IC50 ± SD COX-2
T1 construct: purchased Cayman Chemical 701180
T1 sequence (P35354 18-604): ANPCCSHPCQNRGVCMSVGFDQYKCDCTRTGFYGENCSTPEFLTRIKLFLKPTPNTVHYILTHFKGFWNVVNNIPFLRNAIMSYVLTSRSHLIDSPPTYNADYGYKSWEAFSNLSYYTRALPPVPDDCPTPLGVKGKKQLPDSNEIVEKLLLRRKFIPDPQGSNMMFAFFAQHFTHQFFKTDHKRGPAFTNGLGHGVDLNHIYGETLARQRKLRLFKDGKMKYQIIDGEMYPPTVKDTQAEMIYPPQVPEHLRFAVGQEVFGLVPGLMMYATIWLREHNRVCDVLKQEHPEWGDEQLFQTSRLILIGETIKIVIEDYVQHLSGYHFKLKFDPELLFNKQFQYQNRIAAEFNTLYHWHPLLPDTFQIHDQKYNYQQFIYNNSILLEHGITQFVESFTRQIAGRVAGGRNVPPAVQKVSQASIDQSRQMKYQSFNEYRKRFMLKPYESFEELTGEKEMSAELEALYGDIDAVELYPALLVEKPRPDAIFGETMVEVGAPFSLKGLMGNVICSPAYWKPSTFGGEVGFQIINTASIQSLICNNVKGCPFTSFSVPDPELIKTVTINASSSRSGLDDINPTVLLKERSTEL
Experimental: (§3) 3-(4,5-Dimethylthiazol-2-yl)-2,5-diphenyltetrazolium (MTT) were purchased from Beyotime Institute of Biotechnology (Haimen, China). Annexcin V-FITC cell apoptosis assay kit (catalog No.BA11100) was purchased from BIO-BOX (Nanjing, China). Fibronectin (#F1056) and laminin (#L2020) were purchased from Sigma-Aldrich (St. Louis, MO, USA).
(§4) Then 1 M HCl was added to the reaction mixture to stop the reaction, and one-tenth of the volume of saturated stannous chloride (50 mg/mL) was added. The reaction mixture was incubated at room temperature for 5 min, and PGF2 and PGH2 were produced.

[7] = test system: HeLa; test: MTT antiproliferation assay, HeLa; assay type: cell-based; details: Homo sapiens, 48 h, n = 3, read-out: IC50 ± SD HeLa
Experimental: as §1, §2

[8] = biological target: T2, COX-1 (Homo sapiens, UniProt P23219); test: COX-1 inhibition assay (COX-1 ELISA kit); assay type: biochemical; details: mean of four determinations; read-out: IC50 ± SD COX-1
T2 construct: purchased Cayman Chemical 701170
T2 sequence (P23219 24-599): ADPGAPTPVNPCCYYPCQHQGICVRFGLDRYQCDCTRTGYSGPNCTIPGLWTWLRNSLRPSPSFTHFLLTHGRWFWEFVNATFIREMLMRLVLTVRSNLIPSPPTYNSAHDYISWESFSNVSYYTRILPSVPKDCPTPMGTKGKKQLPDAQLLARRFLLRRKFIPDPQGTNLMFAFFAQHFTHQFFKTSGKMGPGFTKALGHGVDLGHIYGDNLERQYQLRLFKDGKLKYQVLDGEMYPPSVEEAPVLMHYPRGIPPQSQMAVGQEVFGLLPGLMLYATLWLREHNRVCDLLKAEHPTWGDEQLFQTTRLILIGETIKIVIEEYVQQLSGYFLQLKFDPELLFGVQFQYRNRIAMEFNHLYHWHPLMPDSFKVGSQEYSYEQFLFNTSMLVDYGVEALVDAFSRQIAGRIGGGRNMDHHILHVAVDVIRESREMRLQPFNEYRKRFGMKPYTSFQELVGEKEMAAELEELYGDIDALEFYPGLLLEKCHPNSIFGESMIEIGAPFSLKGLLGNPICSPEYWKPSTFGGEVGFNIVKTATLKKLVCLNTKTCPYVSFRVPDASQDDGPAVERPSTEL
Experimental: as §3, §4

Compound | melting point [°C] | IC50 [1] [µM] | IC50 [2] [µM] | IC50 [3] [µM] | IC50 [4] [µM] | CC50 at 48 h [5] [µM] | Selectivity Index (SI) (COX-1 IC50/COX-2 IC50) [6] | IC50 [6] [µM] | IC50 [7] [µM] | IC50 [8] [µM]
NS(=O)(=O)c1ccc(N2N=C(c3ccc(F)cc3)CC2c2ccc3c(c2)OCCO3)cc1 (stereo not drawn) [Compound 4o, 4-(5-(2,3-Dihydrobenzo[b][1,4]dioxin-6-yl)-3-(4-fluorophenyl)-4,5-dihydro-1H-pyrazol-1-yl)benzenesulfonamide] | 195 to 196 | 3.83 ± 0.27 | 4.43 ± 0.33 | 9.24 ± 0.74 | 6.44 ± 0.37 | 107 ± 9.21 | 25.10 | 1.53 ± 0.12 | 7.12 ± 0.69 | 38.41 ± 0.34
COc1ccc(C2=NN(c3ccc(S(N)(=O)=O)cc3)C(c3ccc4c(c3)OCCO4)C2)cc1 (stereo not drawn) [Compound 4m, 4-(5-(2,3-Dihydrobenzo[b][1,4]dioxin-6-yl)-3-(4-methoxyphenyl)-4,5-dihydro-1H-pyrazol-1-yl)benzenesulfonamide] | 207 to 208 | 3.88 ± 0.37 | 4.54 ± 0.29 | 9.44 ± 0.77 | 6.52 ± 0.33 | 110 ± 7.42 | >39.47 | 1.52 ± 0.09 | 7.22 ± 0.19 | > 60
NS(=O)(=O)c1ccc(N2N=C(c3cc(F)cc(F)c3)CC2c2ccc3c(c2)OCCO3)cc1 (stereo not drawn) [Compound 4w, 4-(3-(3,5-Difluorophenyl)-5-(2,3-dihydrobenzo[b][1,4]dioxin-6-yl)-4,5-dihydro-1H-pyrazol-1-yl)benzenesulfonamide] | 182 to 183 | 3.78 ± 0.22 | 4.34 ± 0.28 | 9.08 ± 0.71 | 6.37 ± 0.39 | 105 ± 8.87 | 36.44 | 1.51 ± 0.09 | 7.04 ± 0.47 | 55.02 ± 0.36
Cc1cc(C2=NN(c3ccc(S(N)(=O)=O)cc3)C(c3ccc4c(c3)OCCO4)C2)ccc1F (stereo not drawn) [Compound 4t, 4-(5-(2,3-Dihydrobenzo[b][1,4]dioxin-6-yl)-3-(4-fluoro-3-methylphenyl)-4,5-dihydro-1H-pyrazol-1-yl)benzenesulfonamide] | 159 to 161 | 3.74 ± 0.12 | 4.26 ± 0.19 | 8.94 ± 0.67 | 6.31 ± 0.39 | 104 ± 4.74 | >40.54 | 1.48 ± 0.02 | 6.97 ± 0.51 | > 60
NS(=O)(=O)c1ccc(N2N=C(c3ccc(Cl)cc3)CC2c2ccc3c(c2)OCCO3)cc1 (stereo not drawn) [Compound 4p, 4-(3-(4-Chlorophenyl)-5-(2,3-dihydrobenzo[b][1,4]dioxin-6-yl)-4,5-dihydro-1H-pyrazol-1-yl)benzenesulfonamide] | 146 to 148 | 3.53 ± 0.16 | 3.83 ± 0.26 | 8.16 ± 0.63 | 5.99 ± 0.38 | 94.7 ± 3.65 | 26.46 | 1.41 ± 0.07 | 6.58 ± 0.49 | 37.32 ± 0.18
COc1cccc(C2=NN(c3ccc(S(N)(=O)=O)cc3)C(c3ccc4c(c3)OCCO4)C2)c1 (stereo not drawn) [Compound 4u, 4-(5-(2,3-Dihydrobenzo[b][1,4]dioxin-6-yl)-3-(3-methoxyphenyl)-4,5-dihydro-1H-pyrazol-1-yl)benzenesulfonamide] | 146 to 147 | 6.63 ± 0.42 | 7.81 ± 0.37 | 15.3 ± 1.09 | 10.6 ± 0.67 | 178 ± 10.7 | >22.73 | 2.64 ± 0.17 | 12.2 ± 0.85 | > 60
NS(=O)(=O)c1ccc(N2N=C(c3ccc(F)cc3F)CC2c2ccc3c(c2)OCCO3)cc1 (stereo not drawn) [Compound 4z, 4-(3-(2,4-Difluorophenyl)-5-(2,3-dihydrobenzo[b][1,4]dioxin-6-yl)-4,5-dihydro-1H-pyrazol-1-yl)benzenesulfonamide] | 168 to 169 | 4.48 ± 0.24 | 5.78 ± 0.16 | 11.7 ± 0.86 | 7.42 ± 0.63 | 135 ± 9.63 | >33.52 | 1.79 ± 0.13 | 8.34 ± 0.69 | > 60
CCOc1ccc(C2=NN(c3ccc(S(N)(=O)=O)cc3)C(c3ccc4c(c3)OCCO4)C2)cc1 (stereo not drawn) [Compound 4n, 4-(5-(2,3-Dihydrobenzo[b][1,4]dioxin-6-yl)-3-(4-ethoxyphenyl)-4,5-dihydro-1H-pyrazol-1-yl)benzenesulfonamide] | 193 to 194 | 6.12 ± 0.49 | 6.81 ± 0.55 | 13.5 ± 0.59 | 9.88 ± 0.86 | 157 ± 9.98 | >24.59 | 2.44 ± 0.19 | 11.2 ± 0.86 | > 60
NS(=O)(=O)c1ccc(N2N=C(c3ccccc3F)CC2c2ccc3c(c2)OCCO3)cc1 (stereo not drawn) [Compound 4y, 4-(5-(2,3-Dihydrobenzo[b][1,4]dioxin-6-yl)-3-(2-fluorophenyl)-4,5-dihydro-1H-pyrazol-1-yl)benzenesulfonamide] | 191 to 192 | 5.51 ± 0.37 | 7.83 ± 0.58 | 15.4 ± 0.84 | 8.96 ± 0.74 | 178 ± 12.7 | >27.40 | 2.19 ± 0.21 | 10.2 ± 0.72 | > 60
NS(=O)(=O)c1ccc(N2N=C(c3ccc(I)cc3)CC2c2ccc3c(c2)OCCO3)cc1 (stereo not drawn) [Compound 4r, 4-(5-(2,3-Dihydrobenzo[b][1,4]dioxin-6-yl)-3-(4-iodophenyl)-4,5-dihydro-1H-pyrazol-1-yl)benzenesulfonamide] | 187 to 189 | 2.17 ± 0.05 | 3.12 ± 0.08 | 3.28 ± 0.17 | 3.95 ± 0.18 | 38 ± 1.19 | 47.33 | – | 4.14 ± 0.21 | 41.18 ± 0.17
NS(=O)(=O)c1ccc(N2N=C(c3ccccc3F)CC2c2ccc3c(c2)OCO3)cc1 (stereo not drawn) [Compound 4j, 4-(5-(Benzo[d][1,3]dioxol-5-yl)-3-(2-fluorophenyl)-4,5-dihydro-1H-pyrazol-1-yl)benzenesulfonamide] | 180 to 181 | 4.54 ± 0.29 | 5.86 ± 0.36 | 11.8 ± 0.96 | 7.51 ± 0.57 | 137 ± 12.7 | >33.15 | 1.81 ± 0.09 | 8.41 ± 0.29 | > 60
CCOc1ccc(C2=NN(c3ccc(S(N)(=O)=O)cc3)C(c3ccc4c(c3)OCO4)C2)cc1 (stereo not drawn) [Compound 4c, 4-(5-(Benzo[d][1,3]dioxol-5-yl)-3-(4-ethoxyphenyl)-4,5-dihydro-1H-pyrazol-1-yl)benzenesulfonamide] | 182 to 184 | 5.07 ± 0.26 | 6.93 ± 0.17 | 13.7 ± 0.93 | 8.31 ± 0.67 | 159 ± 11.4 | 10.45 | 2.02 ± 0.13 | 9.37 ± 0.9 | 21.11 ± 0.19
NS(=O)(=O)c1ccc(N2N=C(c3cccc(Cl)c3Cl)CC2c2ccc3c(c2)OCCO3)cc1 (stereo not drawn) [Compound 4x, 4-(3-(2,3-Dichlorophenyl)-5-(2,3-dihydrobenzo[b][1,4]dioxin-6-yl)-4,5-dihydro-1H-pyrazol-1-yl)benzenesulfonamide] | 171 to 173 | – | – | – | – | – | – | – | – | –
